Test results as given in patent US8389557B2, “Triazole derivatives useful as Axl inhibitors” (Rigel Pharmaceuticals, Inc., priority 2005, dated 2013).

Target: T1, Axl (Homo sapiens, UniProt P30530)
T1 construct: endogenous in cells; host or cells: HeLa cells
T1 sequence (P30530 26-894): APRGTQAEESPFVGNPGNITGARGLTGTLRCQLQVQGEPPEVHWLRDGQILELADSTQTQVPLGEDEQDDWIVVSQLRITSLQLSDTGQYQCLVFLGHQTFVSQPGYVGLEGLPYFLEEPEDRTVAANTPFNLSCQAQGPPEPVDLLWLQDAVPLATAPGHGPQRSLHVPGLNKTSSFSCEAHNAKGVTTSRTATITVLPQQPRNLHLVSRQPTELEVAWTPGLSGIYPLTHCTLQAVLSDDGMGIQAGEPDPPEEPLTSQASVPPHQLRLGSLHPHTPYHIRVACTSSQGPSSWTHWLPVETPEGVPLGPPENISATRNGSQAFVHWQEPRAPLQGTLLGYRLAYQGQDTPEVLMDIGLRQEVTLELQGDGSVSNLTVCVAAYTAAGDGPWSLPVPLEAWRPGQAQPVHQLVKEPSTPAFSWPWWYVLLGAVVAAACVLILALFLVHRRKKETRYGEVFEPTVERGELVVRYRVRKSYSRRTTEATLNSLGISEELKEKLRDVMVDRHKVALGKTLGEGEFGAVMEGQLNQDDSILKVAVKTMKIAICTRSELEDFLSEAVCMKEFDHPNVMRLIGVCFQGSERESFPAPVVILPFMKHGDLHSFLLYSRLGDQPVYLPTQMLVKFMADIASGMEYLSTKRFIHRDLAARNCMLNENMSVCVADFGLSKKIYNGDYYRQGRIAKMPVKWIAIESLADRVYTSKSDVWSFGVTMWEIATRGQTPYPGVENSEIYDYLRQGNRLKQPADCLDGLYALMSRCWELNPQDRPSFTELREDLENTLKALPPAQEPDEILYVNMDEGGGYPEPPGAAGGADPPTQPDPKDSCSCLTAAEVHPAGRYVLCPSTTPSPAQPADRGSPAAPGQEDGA
Experiment: Phospho-Akt in-cell Western assay (inhibition of Axl activity)
Type: cell-based
Method in brief: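 HeLa cells on poly-L-lysine, starved 24 h in 0.5% FCS DMEM with Axl/Fc 500 ng/mL, pre-treated with compound 1 h at 37° C. Axl stimulated 5 min by anti-Axl/anti-mouse antibody cross-linking. Fixed cells probed with anti-phospho-Akt and HRP secondary, chemiluminescence read.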

[1] = inhibition of Axl activity, phospho-Akt in-cell Western assay, Table 1
[2] = inhibition of Axl activity, Table 1
[3] = Table 3, Hela cells, Axl antibody cross-linking stimulation, phospho-Akt chemiluminescence
[4] = Table 5, Hela cells, Axl antibody cross-linking stimulation, phospho-Akt chemiluminescence
[5] = Table 4, Hela cells, Axl antibody cross-linking stimulation, phospho-Akt chemiluminescence

CN(C)c1cccc(C(=O)n2nc(Nc3ccc(OCCN4CCCC4)cc3)nc2N)c1 [compound 197, 5-amino-1-(3-(dimethylamino)phenyl)carbonyl-3-[4-[2-(pyrrolidin-1-yl)ethoxy]phenylamino]-1H-1,2,4-triazole]
IC50 [1]: > 20 µM

Nc1nc(Nc2ccc(OCCN3CCCC3)cc2)nn1C(=O)c1cccc(OC(F)(F)F)c1 [compound #7, 5-Amino-3-[4-[2-(pyrrolidin-1-yl)ethoxy]phenylamino]-1-(3-(trifluoromethoxy)phenyl)carbonyl-1H-1,2,4-triazole]
IC50 [1]: < 1 µM

CC(C)Oc1ccc(C(=O)n2nc(N)nc2NC2C3C=CC(C3)C2C(N)=O)cc1 (stereo not shown) [compound 353, 3-amino-1-(4-(iso-propoxy)phenyl)carbonyl-5-[(3-(aminocarbonyl)bicyclo[2.2.1]hept-5-en-2-yl)amino]-1H-1,2,4-triazole]
IC50 (Table 6, Hela cells, Axl antibody cross-linking stimulation, phospho-Akt chemiluminescence): > 20 µM

COc1ccc(C(=O)n2nc(Nc3ccc(OCCN4CCCC4)cc3)nc2N)cc1OC [compound 198, 5-amino-1-(3,4-(dimethoxy)phenyl)carbonyl-3-[4-[2-(pyrrolidin-1-yl)ethoxy]phenylamino]-1H-1,2,4-triazole]
IC50 [1]: > 20 µM

COC(=O)COc1cccc(Nc2nc(N)n(C(=O)c3ccc(OC(C)C)cc3)n2)c1 [compound 135, 5-amino-1-(4-(iso-propoxy)phenyl)carbonyl-3-[3-(methoxycarbonylmethoxy)phenylamino]-1H-1,2,4-triazole]
IC50 [2]: 1 to 10 µM

Nc1nc(Nc2ccc(OCCN3CCCC3)cc2)nn1C(=O)c1ccc2ncsc2c1 [compound 271, 5-amino-1-(benzo[d]thiazol-6-yl)carbonyl-3-[4-[2-(pyrrolidin-1-yl)ethoxy]phenylamino]-1H-1,2,4-triazole]
IC50 [3]: 1 to 10 µM

Cc1ccc(C(=O)n2nc(Nc3ccc(N4CCOCC4)cc3)nc2N)cc1 [compound 54, 5-amino-1-(4-(methyl)phenyl)carbonyl-3-(4-(morpholin-4-yl)phenylamino)-1H-1,2,4-triazole]
IC50 [2]: < 1 µM

COc1cccc(Nc2nc(N)n(C(=O)c3ccc(OC(C)C)cc3)n2)c1 [compound 121, 5-amino-1-(4-(iso-propoxy)phenyl)carbonyl-3-[3-(methoxy)phenylamino]-1H-1,2,4-triazole]
IC50 [2]: 1 to 10 µM

Nc1nc(Nc2ccc(OCCN3CCCC3)cc2)nn1C(=O)c1ccc2[nH]ccc2c1 [compound #3, 5-Amino-1-(1H-indol-5-yl)carbonyl-3-[4-[2-(pyrrolidin-1-yl)ethoxy]phenylamino]-1H-1,2,4-triazole]
IC50 [3]: < 1 µM

CCCCOc1ccc(NC(=O)n2nc(N)nc2Nc2ccc(OCCN3CCCCC3)cc2)cc1 [compound 182, 3-amino-N-(4-(butoxy)phenyl)-5-[4-[2-(piperidin-1-yl)ethoxy]phenylamino]-1H-1,2,4-triazole-1-carboxamide]
IC50 (Table 8, Hela cells, Axl antibody cross-linking stimulation, phospho-Akt chemiluminescence): > 20 µM

Nc1nc(Nc2ccc(OCCN3CCCCCC3)cc2)nn1C(=O)c1ccc2cc[nH]c2c1 [compound 323, 5-amino-1-(1H-indol-6-yl)carbonyl-3-[4-[2-(azepan-1-yl)ethoxy]phenylamino]-1H-1,2,4-triazole]
IC50 [3]: < 1 µM

Cc1cccc(C(=O)n2nc(Nc3cccnc3)nc2N)c1 [compound 220, 5-amino-1-(3-methylphenyl)carbonyl-3-(pyridin-3-yl)amino-1H-1,2,4-triazole]
IC50 [4]: > 20 µM

Cc1cccc(C(=O)n2nc(Nc3ccc4oc(COC5CCCCO5)cc4c3)nc2N)c1 (stereo not shown) [compound 130, 5-amino-3-[N-(2-(tetrahydropyran-2-yloxy)methylbenzofuran-5-yl)-amino]-1-(3-(methyl)phenyl)carbonyl-1H-1,2,4-triazole]
IC50 [4]: 1 to 10 µM

CC(C)Oc1ccc(C(=O)n2nc(Nc3ccc(OC4CCCC4)cc3)nc2N)cc1 [compound 151, 5-amino-3-[4-(cyclopentoxy)phenylamino]-1-(4-(iso-propoxy)phenyl)carbonyl-1H-1,2,4-triazole]
IC50 [2]: > 20 µM

COc1ccc(C(=O)n2nc(Nc3ccc4c(c3)OCCO4)nc2N)cc1 [compound 102, 5-amino-3-(1,4-benzodioxan-6-yl)amino-1-(4-(methyloxy)phenyl)carbonyl-1H-1,2,4-triazole]
IC50 [2]: 1 to 10 µM

Cc1cccc(C(=O)n2nc(Nc3cccc(OCC(=O)OC(C)(C)C)c3)nc2N)c1 [compound 221, 5-amino-1-(3-methylphenyl)carbonyl-3-[(3-tert-butoxycarbonylmethoxy)phenyl]amino-1H-1,2,4-triazole]
IC50 [2]: 1 to 10 µM

CC1(C)Oc2ccc(C(=O)n3nc(N)nc3Nc3ccc(N4CCOCC4)cc3)cc2NC1=O [compound 69, 3-amino-1-(2,2-dimethyl-2H-benzo[b][1,4]oxazin-3(4H)-on-6-yl)carbonyl-5-(4-(morpholin-4-yl)phenylamino)-1H-1,2,4-triazole]
IC50 [5]: 1 to 10 µM

Cc1cccc(C(=O)n2nc(Nc3ccc4[nH]c(C)cc4c3)nc2N)c1 [compound 255, 5-amino-3-(1H-2-methyl-indol-5-yl)amino-1-(3-methylphenyl)carbonyl-1H-1,2,4-triazole]
IC50 [4]: 1 to 10 µM

Nc1nc(Nc2ccc3c(c2)OCCO3)nn1C(=O)c1ccc(OC2CCCC2)cc1 [compound 120]
IC50 [2]: > 20 µM

CC(C)Oc1ccc(Nc2nc(N)n(C(=O)c3cccc(O)c3)n2)cc1 [compound 73, 5-amino-1-(3-(hydroxy)phenyl)carbonyl-3-[4-(iso-propoxy)phenylamino]-1H-1,2,4-triazole]
IC50 [2]: 1 to 10 µM

CC1(C)Oc2ccc(C(=O)n3nc(N)nc3Nc3ccc(N4CCCC4)cc3)cc2NC1=O [compound 296, 3-amino-1-(2,2-dimethyl-2H-benzo[b][1,4]oxazin-3(4H)-on-6-yl)carbonyl-5-[4-(pyrrolidin-1-yl)phenylamino]-1H-1,2,4-triazole]
IC50 [5]: 10 to 20 µM

Cc1cccc(C(=O)n2nc(Nc3ccc(OCCN4CCSCC4)cc3)nc2N)c1 [compound 61]
IC50 [2]: 1 to 10 µM

Nc1nc(Nc2ccc(OCCN3CCCC3)c(Cl)c2)nn1C(=O)c1cc(Cl)cc(Cl)c1 [compound 402, 5-amino-3-[3-chloro-4-[2-(pyrrolidin-1-yl)ethoxy]phenylamino]-1-(3,5-dichlorophenyl)carbonyl-1H-1,2,4-triazole]
IC50 [1]: > 20 µM

Nc1nc(Nc2ccc(OCCN3CCCC3)cc2)nn1C(=O)c1ccc(-c2ccccc2)cc1 [compound 277, 5-amino-1-(4-(phenyl)phenyl)carbonyl-3-[4-[2-(pyrrolidin-1-yl)ethoxy]phenylamino]-1H-1,2,4-triazole]
IC50 [1]: < 1 µM

CC(C)(C)Oc1ccc(C(=O)n2nc(Nc3ccc(N4CCOCC4)cc3)nc2N)cc1 [compound 57, 5-amino-3-(4-(morpholin-4-yl)phenylamino)-1-(4-(tert-butoxy)phenyl)carbonyl-1H-1,2,4-triazole]
IC50 [2]: < 1 µM

Nc1nc(Nc2ccc(OCCN3CCCC3)cc2)nn1C(=O)c1cccc(N2CCOCC2)c1 [compound 331, 5-amino-1-(3-(morpholin-4-yl)phenyl)carbonyl-3-[4-[2-(pyrrolidin-1-yl)ethoxy]phenylamino]-1H-1,2,4-triazole]
IC50 [1]: < 1 µM

Nc1nc(Nc2ccc3c(c2)OCCO3)nn1C(=O)c1ccccc1Cl [compound 94, 5-amino-1-(2-(chloro)phenyl)carbonyl-3-(1,4-benzodioxan-6-yl)amino-1H-1,2,4-triazole]
IC50 [2]: > 20 µM

Cc1cccc(C(=O)n2nc(Nc3ccc4ncsc4c3)nc2N)c1 [compound 250, 5-amino-3-(benzothiazol-6-yl)amino-1-(3-methylphenyl)carbonyl-1H-1,2,4-triazole]
IC50 [4]: 1 to 10 µM

CC(C)(C)Oc1ccc(C(=O)n2nc(NC3CCN(S(C)(=O)=O)CC3)nc2N)cc1 [compound 393, 5-amino-1-(4-(tert-butoxy)phenyl)carbonyl-3-(1-methylsulfonylpiperidin-4-yl)amino-1H-1,2,4-triazole]
IC50 [4]: > 20 µM

COc1cc(OC)cc(C(=O)n2nc(Nc3ccc(OCCN4CCCCC4)cc3)nc2N)c1 [compound #19, 5-Amino-1-(3,5-(dimethoxy)phenyl)carbonyl-3-[4-[2-(piperidin-1-yl)ethoxy]phenylamino]-1H-1,2,4-triazole]
IC50 [1]: < 1 µM

CC(C)Oc1ccc(C(=O)n2nc(N)nc2Nc2ccc(N3CCCC3)cc2)cc1 [compound 294, 3-amino-1-(4-(iso-propoxy)phenyl)carbonyl-5-(4-(pyrrolidin-1-yl)phenylamino]-1H-1,2,4-triazole]
IC50 (Table 2, Hela cells, Axl antibody cross-linking stimulation, phospho-Akt chemiluminescence): > 20 µM
